The source of these data is PubChem BioAssay AID256 (DTP/NCI, 2004).

Values joined by “and” are separate entries in the source; they are usually repeats but may differ in a detail not shown here. Identical values can stand only once. Inconclusive results and toxic doses are left out.

The assay concerns CD2F1 mice, L1210 leukemia ip, survival T/C. The experiment in a line: NCI In Vivo Anticancer Drug Screen. Data for tumor model L1210 Leukemia (intraperitoneal) in CD2F1 (CDF1) mice. The settings on record: endpoint: mean survival time, higher = longer survival. An outline of the steps:
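Antitumor effect is scored in animals hosting a serially transplanted tumor. Values compare compound-dosed animals against vehicle-only controls as a simple quotient.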

Where [1] appears, read: dose: 100.0 mg/kg/injection, schedule: Q04DX003 (ip), vehicle: saline with Tween-80.
[2] abbreviates: dose: 200.0 mg/kg/injection, schedule: Q04DX003 (ip), vehicle: saline with Tween-80.
The mark [3] stands for this setting: dose: 400.0 mg/kg/injection, schedule: Q04DX003 (ip), vehicle: saline with Tween-80.
Setting [4] is: dose: 100.0 mg/kg/injection, schedule: Q01DX009 (ip), vehicle: saline with Tween-80.
Where [5] appears, read: dose: 200.0 mg/kg/injection, schedule: Q01DX009 (ip), vehicle: saline with Tween-80.
Setting [6] is: dose: 400.0 mg/kg/injection, schedule: Q01DX009 (ip), vehicle: saline with Tween-80.
Setting [7] is: dose: 50.0 mg/kg/injection, schedule: Q01DX009 (ip), vehicle: Klucel (hydroxypropylcellulose) (HPC).
The mark [8] stands for this setting: dose: 25.0 mg/kg/injection, schedule: Q04DX003 (ip), vehicle: saline with Tween-80.

For `CN(C)N=Nc1ccccc1C(=O)NCC#N`, the T/C reads like this: (dose: 18.75 mg/kg/injection, schedule: Q01DX009 (ip), vehicle: Klucel (hydroxypropylcellulose) (HPC)) 100 % of control and 103 % of control; (dose: 37.5 mg/kg/injection, schedule: Q01DX009 (ip), vehicle: Klucel (hydroxypropylcellulose) (HPC)) 106 % of control and 107 % of control; (dose: 75.0 mg/kg/injection, schedule: Q01DX009 (ip), vehicle: Klucel (hydroxypropylcellulose) (HPC)) 112 % of control; (dose: 150.0 mg/kg/injection, schedule: Q01DX009 (ip), vehicle: Klucel (hydroxypropylcellulose) (HPC)) 91 % of control.
On to `O=CNc1ccc(O)cc1`, for which the T/C by setting is: under setting [1], 93 % of control; under setting [2], 101 % of control; under setting [3], 103 % of control.
Take `Cc1ccc(S(=O)(=O)NCCC(=O)Nc2ccccc2)cc1`: the T/C reads like this: (dose: 50.0 mg/kg/injection, schedule: Q01DX009 (ip), vehicle: water) 86 % of control; (dose: 100.0 mg/kg/injection, schedule: Q01DX009 (ip), vehicle: water) 86 % of control; (dose: 200.0 mg/kg/injection, schedule: Q01DX009 (ip), vehicle: water) 93 % of control.
Consider `COc1cccc2c1C(=O)c1c(O)c3c(c(O)c1C2=O)C[C@@](O)(C(C)=O)C[C@@H]3OC1CC(N(C)C)C(O)C(C)O1` (some centres not stated), for which the T/C was 109 % of control (dose: 0.25 mg/kg/injection, schedule: Q01DX009 (ip), vehicle: saline); 120 % of control and 111 % of control (dose: 0.5 mg/kg/injection, schedule: Q01DX009 (ip), vehicle: saline); 110 % of control (dose: 0.5 mg/kg/injection, schedule: Q01DX009 (ip), vehicle: water); 105 % of control (dose: 1.0 mg/kg/injection, schedule: Q01DX009 (ip), vehicle: saline); 119 % of control (dose: 1.0 mg/kg/injection, schedule: Q01DX009 (ip), vehicle: water); 102 % of control (dose: 2.0 mg/kg/injection, schedule: Q01DX009 (ip), vehicle: saline). The T/C (dose: 4.0 mg/kg/injection, schedule: Q01DX009 (ip), vehicle: saline) was 161 % of control; the T/C (dose: 8.0 mg/kg/injection, schedule: Q01DX009 (ip), vehicle: saline) is 88 % of control and 103 % of control; the T/C (dose: 8.0 mg/kg/injection, schedule: Q01DX009 (ip), vehicle: water) is 88 % of control.
As to `CC(C)NCC(O)COc1cccc2ccccc12` (configuration not stated), the T/C is 94 % of control and 98 % of control and 103 % of control (dose: 4.0 mg/kg/injection, schedule: Q01DX009 (ip), vehicle: Klucel (hydroxypropylcellulose) (HPC)); 94 % of control and 95 % of control and 98 % of control (dose: 8.0 mg/kg/injection, schedule: Q01DX009 (ip), vehicle: Klucel (hydroxypropylcellulose) (HPC)); 91 % of control and 96 % of control and 101 % of control (dose: 16.0 mg/kg/injection, schedule: Q01DX009 (ip), vehicle: Klucel (hydroxypropylcellulose) (HPC)); 87 % of control and 93 % of control and 96 % of control (dose: 32.0 mg/kg/injection, schedule: Q01DX009 (ip), vehicle: Klucel (hydroxypropylcellulose) (HPC)); 84 % of control and 102 % of control and 105 % of control (dose: 64.0 mg/kg/injection, schedule: Q01DX009 (ip), vehicle: Klucel (hydroxypropylcellulose) (HPC)); 120 % of control (dose: 128.0 mg/kg/injection, schedule: Q01DX009 (ip), vehicle: Klucel (hydroxypropylcellulose) (HPC)).
Take `O=C(/C=C(\NC1CCCCC1)C(=O)c1ccccc1)c1ccccc1`: the T/C is 87 % of control under setting [4]; 98 % of control under setting [5]; 86 % of control under setting [2]; 97 % of control under setting [6]; 86 % of control under setting [3].
As for `CC(C)NC(=O)c1ccc(N/N=[N+](/C)[O-])cc1`, the T/C is 98 % of control (dose: 6.25 mg/kg/injection, schedule: Q01DX005 (ip), vehicle: saline with Tween-80); 100 % of control (dose: 12.5 mg/kg/injection, schedule: Q01DX005 (ip), vehicle: saline with Tween-80); 107 % of control (dose: 25.0 mg/kg/injection, schedule: Q01DX005 (ip), vehicle: saline with Tween-80); 100 % of control (dose: 50.0 mg/kg/injection, schedule: Q01DX005 (ip), vehicle: saline with Tween-80); 109 % of control (dose: 100.0 mg/kg/injection, schedule: Q01DX005 (ip), vehicle: saline with Tween-80); 107 % of control under setting [4]. For the same compound, the T/C is 94 % of control under setting [1]; 110 % of control under setting [5]; 100 % of control under setting [2]; 117 % of control under setting [6]; 110 % of control under setting [3].
Turning to `CCCCOC(=O)c1ccccc1Cl`, the T/C is 94 % of control (dose: 50.0 mg/kg/injection, schedule: Q04DX003 (ip), vehicle: Klucel (hydroxypropylcellulose) (HPC)); 100 % of control (dose: 100.0 mg/kg/injection, schedule: Q04DX003 (ip), vehicle: Klucel (hydroxypropylcellulose) (HPC)); 102 % of control (dose: 200.0 mg/kg/injection, schedule: Q04DX003 (ip), vehicle: Klucel (hydroxypropylcellulose) (HPC)).
For `CCN(CC)CCCC(C)NC(C)CCCN(CC)CC` (configuration not stated), the T/C was 95 % of control (dose: 25.0 mg/kg/injection, schedule: Q01DX009 (ip), vehicle: Klucel (hydroxypropylcellulose) (HPC)) and 95 % of control under setting [7].
Consider `CCC(CC)(C(N)=O)C(N)=O`, for which the T/C (dose: 100.0 mg/kg/injection, schedule: Q04DX002 (ip), vehicle: saline with Tween-80) was 108 % of control; the T/C (dose: 200.0 mg/kg/injection, schedule: Q04DX002 (ip), vehicle: saline with Tween-80) was 100 % of control; the T/C (dose: 400.0 mg/kg/injection, schedule: Q04DX002 (ip), vehicle: saline with Tween-80) was 100 % of control.
Turning to `OCC1OC(n2cc(I)c3c(Cl)ncnc32)C(O)C1O` (configuration not stated), the T/C is, setting by setting: (dose: 100.0 mg/kg/injection, schedule: Q01DX001 (ip), vehicle: saline) 98 % of control; (dose: 200.0 mg/kg/injection, schedule: Q01DX001 (ip), vehicle: saline) 110 % of control; (dose: 400.0 mg/kg/injection, schedule: Q01DX001 (ip), vehicle: saline) 110 % of control.
As to `c1ccc(CNCCNCc2ccccc2)cc1`, the T/C reads like this: under setting [4], 95 % of control; under setting [1], 97 % of control.
As for `Cc1cc(C)c(C(=O)CC(C#N)c2ccccc2)c(C)c1` (configuration not stated), the T/C reads like this: under setting [1], 95 % of control; under setting [2], 98 % of control; under setting [3], 91 % of control.
For the compound `OCC1OC(Nc2ncnc3snnc23)C(O)C1O` (configuration not stated), the T/C is, setting by setting: (dose: 200.0 mg/kg/injection, schedule: Q04DX003 (ip), vehicle: saline) 157 % of control; (dose: 400.0 mg/kg/injection, schedule: Q04DX003 (ip), vehicle: saline) 173 % of control.
Take `CC(=O)Nc1ccccc1N`: the T/C reads like this: under setting [7], 100 % of control; (dose: 100.0 mg/kg/injection, schedule: Q01DX009 (ip), vehicle: Klucel (hydroxypropylcellulose) (HPC)) 94 % of control; (dose: 200.0 mg/kg/injection, schedule: Q01DX009 (ip), vehicle: Klucel (hydroxypropylcellulose) (HPC)) 103 % of control; (dose: 400.0 mg/kg/injection, schedule: Q01DX009 (ip), vehicle: Klucel (hydroxypropylcellulose) (HPC)) 107 % of control.
As for `O=[N+]([O-])c1ccc2ncccc2c1`, the T/C was 101 % of control (dose: 25.0 mg/kg/injection, schedule: Q01DX009 (ip), vehicle: other); 105 % of control (dose: 50.0 mg/kg/injection, schedule: Q01DX009 (ip), vehicle: other); 104 % of control (dose: 100.0 mg/kg/injection, schedule: Q01DX009 (ip), vehicle: other).
Regarding `CCOC(=O)C[P+](c1ccccc1)(c1ccccc1)c1ccccc1`, the T/C reads like this: (dose: 3.13 mg/kg/injection, schedule: Q01DX009 (ip), vehicle: saline sonified) 93 % of control; (dose: 3.13 mg/kg/injection, schedule: Q04DX003 (ip), vehicle: saline with Tween-80) 98 % of control; (dose: 6.25 mg/kg/injection, schedule: Q01DX009 (ip), vehicle: saline sonified) 94 % of control; (dose: 6.25 mg/kg/injection, schedule: Q04DX003 (ip), vehicle: saline with Tween-80) 98 % of control; (dose: 12.5 mg/kg/injection, schedule: Q01DX009 (ip), vehicle: saline sonified) 93 % of control; (dose: 12.5 mg/kg/injection, schedule: Q04DX003 (ip), vehicle: saline with Tween-80) 98 % of control. The T/C (dose: 25.0 mg/kg/injection, schedule: Q01DX009 (ip), vehicle: saline sonified) was 93 % of control and the T/C under setting [8] was 95 % of control.
As for `[Cl][Pt][Cl].c1ccc([AsH](CC[AsH](c2ccccc2)c2ccccc2)c2ccccc2)cc1`, the T/C is, setting by setting: under setting [8], 94 % of control; (dose: 50.0 mg/kg/injection, schedule: Q04DX003 (ip), vehicle: saline with Tween-80) 88 % of control; under setting [1], 96 % of control.
